The values below come from a melting point compilation (Tetko et al.; mined from patent text by program, amines drawn as free bases though some values may be those of a salt).

`O=C1CC[C@@H](C(=O)N[C@@H](CSCc2ccccc2)C(=O)O)N1`: the melting point – broadly, the temperature, or range, at which the solid turns liquid – lay within 181 to 183 °C. In the case of `O=[N+]([O-])c1cccc(C(O)C(Cl)(Cl)Cl)c1` (configuration not stated), the melting point was in the range of 91 to 95 °C. To `CNc1nc(-c2cccc(NC(=O)C3CC3)c2)c2cc(OC)c(OC)cc2n1` belongs 205 to 207 °C. To `CCOC(=O)c1cnc2cc3c(cc2c1Cl)OCO3` belongs 109 to 110 °C. To `N#CCc1c(Cl)nc(-c2ccccc2)n1Cc1ccccc1` belongs 121 to 122 °C; to `O=c1[nH]c2ccc(Cl)cc2n1CCCCl`, 122 °C. `O=C(O)c1ccc(-c2nc(-c3cccc(Oc4ccccc4)c3)no2)cc1` registered a melting point of 292 to 293 °C.

The molecule `CC(OC(=O)Nc1ccc(-c2ncn(-c3ccc(OC(F)(F)F)cc3)n2)cc1)C1CC1` (configuration not stated) had a melting point of 123 to 124 °C. Molecule `COc1ccc(C=C(Br)Br)cc1OC(C)C` yielded a melting point of 67 to 69 °C.

Regarding `Cc1cc(N)nc(CCc2nc3cc(-c4ccc(C(F)(F)F)cc4)cnc3[nH]2)c1`, the melting point was 170 °C. As for `O=C(O)CCCOc1cccc(CCNC(=O)C2Cc3ccccc3N2S(=O)(=O)c2ccc(-c3cccc(C(F)(F)F)c3)cc2)c1` (configuration not stated), the figure is 70 °C; as for `COc1cccc(CNc2ncnc3c2sc2nc(N(C)C)c4c(c23)C(C)(C)CC4)c1OC`, 91.9 to 93.6 °C; as for `COCCNC(=O)c1cc(F)cc(-c2cccc3cc(Cc4cc(F)cc(Cl)c4)sc23)c1`, 72 to 73 °C. To `CCC(C)NC(Nc1cc(Cl)cc(Cl)c1)=C(C#N)S(=O)(=O)c1ccc(Cl)cc1` (configuration not stated) belongs 150 to 152 °C; to `COc1ccc(CCN(CCc2ccc(-c3ccccc3)cc2)C(=O)CCCCC(N)=O)cc1OC`, 177 to 179 °C.

With `CCCCCNS(=O)(=O)NC(=O)/C=C/c1ccc(OCCOC)cc1Oc1ncc(C(F)(F)F)cc1Cl`, the melting point was 120 to 122 °C. As for `CC1(C)c2cc(O)ccc2OC1O` (configuration not stated), the figure is 78 to 81 °C. Consider `CN(C(=O)OC(C)(C)C)c1cc(Oc2ccccc2N2CCCCC2)ccc1N`, for which the melting point is 108 to 110 °C. To `CCCCc1nc2ccccn2c(=O)c1-c1ccc(NC2CCN(C(=O)OC(C)(C)C)C2)cc1` (configuration not stated) belongs 116 to 118 °C; to `CCCCc1nc(Cl)c(CO)n1Cc1ccc(-c2ccccc2-c2nnnn2C(c2ccccc2)(c2ccccc2)c2ccccc2)cc1`, 95 to 98 °C. As for `CCOC(=O)c1ccc(NCCCCCCCCCCCCCC[Si](C)(C)C)cc1`, the melting point fell in the range of 91 to 92 °C. As for `O=S(=O)(c1ccc2ccccc2c1)N1C[C@H](O)C[C@H]1COCc1ccccc1`, the figure is 124 to 126 °C. Molecule `CCN(CC)CCNC(=O)N1CCCC(S(=O)(=O)c2ccc(F)cc2)C1` (configuration not stated) came in with a melting point of 137 to 138 °C.

In the case of `CCOC(=O)c1sc(NC(C)=O)c(C(=O)OCC)c1C`, the melting point fell in the range of 130 to 131 °C. As for `COc1ccc(C2CCN(C(=O)CCC(=O)c3ccc4c(c3)CCNCC4)CC2)cc1`, the figure is 99 to 100 °C. As for `CN(C)C=CC(=O)c1cccc(NC=O)c1`, the figure is 165 to 167 °C; as for `O=C(O)C1CSC(c2cc([N+](=O)[O-])ccc2OCCO[N+](=O)[O-])N1` (configuration not stated), 99 to 101 °C. As for `CC(=O)c1c(NC(=O)c2ccc(C)cc2)cccc1C(F)(F)F`, the figure is 171 °C; as for `O=C(NCCCO)c1cc2ccccc2[nH]1`, 152 to 156 °C. In turn, `O=C1NC(=O)c2ccc(I)cc2/C1=C/Nc1ccc(CN2CCCCC2)cc1` registered a melting point of 202 to 203 °C. As for `CCOC(=O)c1c(C)nc(S)c(N)c1NCCCN(C)C`, the figure is 110 to 112 °C; as for `CC(O)COc1c2ccccc2c(C=O)c2ccccc12` (configuration not stated), 84 to 86 °C. To `CC#CCOc1ccc(S(=O)(=O)C2(C(=O)O)CCN(Cc3ccc(OCCN4CCCCC4)cc3)CC2)cc1` belongs 172 °C. To `Brc1cccc(-c2ccccc2)n1` belongs 50 °C; to `CS(=O)(=O)c1ccc(-c2oc3ccccc3c(=O)c2-c2cnccc2Cl)cc1`, 232 to 233 °C. With `N#CN(Cc1ccc([N+](=O)[O-])cc1)C(=O)CCCC(=O)N(C#N)Cc1ccc([N+](=O)[O-])cc1`, the melting point lay in the range of 146 to 148 °C. In the case of `COC(=O)c1cc2ccoc2nc1C1=NC(C)(C(C)C)C(=O)N1` (configuration not stated), the melting point fell in the range of 134 to 137 °C. As for `N#CCCNC(=O)c1cccc(-c2ccc3c(c2)N(Cc2ccc(Cl)cc2Cl)CCCC3)c1`, the melting point lay within 139 to 140 °C.

In turn, `COC1=CC2=CCC3C4CC=CC4(C)CCC3C2(C)CC1` (configuration not stated) returned a melting point of 83 to 92 °C. Consider `Cc1ccc(-c2ccc3c(c2)C=C(C(=O)Nc2ccc(CNc4ccccn4)cc2)CCO3)cc1`, for which the melting point fell in the range of 189 to 190 °C. In turn, `COc1ccc(CN(C)CCCOc2ccc(NC(=O)c3cccc4c(=O)c5cccc(OC)c5[nH]c34)cc2)cc1OC` returned a melting point of 180 °C. Regarding `COc1cc(OC)nc(C2(Cl)OC(=O)c3ncccc32)n1` (configuration not stated), the melting point was 146 to 148 °C. `CCCCn1c(=O)n(CCC)c(=O)c2c3n(nc21)CCCCN3C` returned a melting point of 63 to 65 °C. To `Cc1c(C)c2c(c(C)c1Br)C(c1ccc(C(C)C)cc1)CO2` (configuration not stated) belongs 86 to 87 °C; to `CC(=O)OCC(=O)C1CCC2C3CCC4CC(O)C(N5CCOC(C)(C)C5)CC4(C)C3CCC12C` (configuration not stated), 174 to 175 °C. `CNC(=O)c1cc2c(Oc3ccc(CO)cc3)cncc2s1` came in with a melting point of 195 to 196 °C. For the molecule `COc1ccc(C2(C=O)C=CC=CC2)cc1OCCCC1(c2noc3cc(F)ccc23)CCNCC1` (configuration not stated), the melting point was in the range of 140 to 141 °C. Regarding `COC(=O)/C=C/c1c(F)cc2nn(C)cc2c1C(=O)OC`, the melting point was 130 to 132 °C. Consider `O=c1[nH]c2ccccc2n1CCCN1CCC(c2noc3cccc(F)c23)CC1`, for which the melting point was 174 to 175 °C.

`COc1cc2ncn(CCCCCl)c(=O)c2cc1OC` yielded a melting point of 117 °C. Molecule `NS(=O)(=O)c1cccc(-c2cn(-c3nc(-c4ccc(Cl)s4)cc(C(F)(F)F)n3)cn2)c1` yielded a melting point of 189 °C.

For `CCc1nc2c(cnn2CC)c(NC2CCOCC2)c1CNC(=O)c1cccc(C(=O)NCc2ccc(C)c(-c3cccc(CN4CCCNCC4)c3)c2)c1`, the melting point lay within 118 to 120 °C. Consider `O=C(NC1CC1)c1cccc(-c2cccc3oc(Cc4cccc(C(F)(F)F)c4)cc23)c1`, for which the melting point was in the range of 120 to 121 °C. To `Cc1cc(C)nc(NC(=N)Nc2ccccc2C(F)(F)F)n1` belongs 161 to 162 °C; to `Cc1cccc(C(=O)C=CC(=O)O)c1`, 115 to 117 °C; to `C[C@@H]1CN(Cc2ccccc2)C[C@H]1N` (relative stereo), 74 to 80 °C.

In turn, `CS(=O)(=O)C(=C1CN(C(c2ccccc2)c2ccccc2)C1)c1ccc(O)cc1` gave a melting point of 211 °C. As for `O=C(Nc1ccc(-n2nc(C(F)(F)F)cc2Br)cc1)c1ccncc1F`, the figure is 143 to 144 °C. To `N#Cc1ccc(-c2n[nH]cc2C(F)(F)F)cc1SCC(F)(F)F` belongs 90 to 91 °C; to `CCCCNc1c(C#N)cnc2cc(OCCOC)c(OC)cc12`, 99 to 102 °C; to `CON(C)C(=O)[C@@H](Cc1ccc(OCc2ccccc2)cc1)NC(=O)OC(C)(C)C`, 107 to 109 °C. As for `Cc1ccc(NC(=O)c2ccccc2N)cc1C(F)(F)F`, the figure is 138 to 140 °C. Molecule `CS(=O)(=O)Nc1nc(CN2CCN(C(c3ccccc3)c3ccccc3)CC2)cs1` gave a melting point of 177 to 179 °C.

`N#Cc1cccc(-c2ccc(=O)n(Cc3cccc(-c4ncc(Br)cn4)c3)n2)c1`: the melting point fell in the range of 178 to 179 °C. As for `Cc1c(F)c(F)c(F)c2c1c(=O)c(C(=O)O)cn2-c1ccc(O)cc1`, the figure is 287 to 288 °C; as for `CC(=O)Nc1cccc2c(=O)n(C)c3ccccc3c(=O)c12`, 199 to 201 °C; as for `CNC(=S)NN1Cc2c(C)ccc(C)c2C1`, 177 to 178 °C. In turn, `Oc1ccc(O)c2c1CCCC2` registered a melting point of 213 to 215 °C. To `COP(=S)(OC)Oc1nsc(C)c1C#N` belongs 52 °C; to `CC(C)(C)NCC(O)c1cc(F)c(N)cc1F` (configuration not stated), 115 to 116 °C. In turn, `COc1cc(COc2nn(-c3ccccc3)cc2/C=C/c2nc(N3CCCCC3)sc2C)ccc1OCc1nc(-c2ccc(CC(=O)O)cc2)oc1C` came in with a melting point of 146 to 148 °C. As for `CCNc1cccnc1N(CC)CC1CCN(C(=O)c2ccc[nH]2)CC1`, the figure is 109 to 110 °C.

Regarding `CCCCc1nn(-c2ccc(C(F)(F)F)cn2)cc1CCC(=O)OCC`, the melting point lay in the range of 63 to 64 °C. To `COc1ccccc1-c1nc(C)c(C(N)=O)s1` belongs 191 to 192 °C; to `Cc1ncc(CNC(=O)c2ccc3n2Cc2ccccc2N(C(=O)CSc2ccc(Br)cc2)C3)c(CO)c1O`, 199 to 200 °C.

Molecule `COc1ccc2cc(CCc3ccc(OCC(O)CNC(C)C)c(OC)c3)n(C)c(=O)c2c1` (configuration not stated) registered a melting point of 162 to 164 °C. As for `Cc1noc(NS(=O)(=O)C23CSc4cccc(c42)OCO3)c1C` (configuration not stated), the figure is 135 to 137 °C; as for `C/C=C\Cn1c(Oc2cc(C)cc(C)c2)c(C(C)C)c(=O)[nH]c1=O`, 141 to 142 °C. Molecule `CC(=O)N(C)c1csc(Br)n1` displayed a melting point of 84 °C. To `CCCCc1nnc(-c2ccncc2)n1Cc1ccc(N)cc1` belongs 63.5 to 64.5 °C; to `Cc1ccc(=O)n(-c2cc(-c3ccnc(Nc4cccc(Cl)c4)n3)ccn2)n1`, 187 to 189 °C; to `OCc1ccc(/C=C/c2ccc[nH]2)cc1`, 186 to 189 °C. Molecule `COC1=C(OC)C(=O)C2=C(CC(CCCCCCCC(=O)O)(c3ccccc3)C2)C1=O` showed a melting point of 63 to 66 °C.

For the molecule `Cc1cc(C(C)(C)C)cc(C)c1S(=O)(=O)C[N+](=O)[O-]`, the melting point was 90 to 92 °C. Turning to `CCCCCCCCCCCCCCOc1ccc(O)c(C(=O)OC)c1`, the melting point was in the range of 49 to 53 °C. For `COc1cc(OC)c2ncn(/C=C/C(=O)O)c(=O)c2c1`, the melting point lay within 305 to 307 °C. Molecule `CC(C)(C)OC(=O)Nc1ccc(C#Cc2ccc(OC(F)(F)F)cc2)cc1NC(=O)CC(=O)c1cccc(C#N)c1` gave a melting point of 152 to 154 °C.
